What was measured:
[1] = system: LAPC4 androgen-independent tumors; experiment: Therapy of castrated mice bearing LAPC4 androgen-independent tumors; assay type: in vivo
Experimental: (§1) The xenograft models—LAPC9, LAPC4, LNCaP, and VCaP were serially passaged in castrated male NOD/SCID-γ mice (NSG; for LNCaP or NOD/SCID for the other models). The tumors were then harvested for western blot analysis for androgen receptor, androgen receptor-target molecules, cancer stem cell (CSC) and castration resistance (CR) markers. PC3 cells were used as a negative control for androgen receptors. 60 μg of whole cell lysate was loaded in each lane. GADPH was run as the loading controls (top and bottom panels).
To determine whether targeting cyt-AR in these tumors would be effective in reducing tumor burden, castrated mice bearing LAPC4 androgen-independent tumors were administered enzalutamide as indicated (FIG. 5B), and the tumor volume measured.
However, starting from ˜6.5-7 weeks, tumors resumed growth, indicative of resistance to enzalutamide. […] This opens the possibility of employing combinatorial approaches that target androgen receptor (Enzalutamide) together molecules such as Bcl2 (Venetoclax).

[2] = system: LAPC9 androgen-independent tumors; experiment: Therapy of LAPC9 androgen-independent tumors; assay type: in vivo, mice
Experimental: as §1
To determine the sensitivity of LAPC9 androgen-independent tumors to enzalutamide, therapy experiments were performed as described for the LNCaP primary AI tumors (FIG. 3). […] To determine whether blocking alternate pathways regulated by any of these high expressing proteins, in the Enzalutamide resistant LAPC9 androgen-independent tumors, affects tumor burden, therapy experiments were performed with the Bromodomain and Extra-Terminal protein (a upstream regulator of Myc transcription) inhibitor, JQ1. The integrin α2β1 inhibitor, Compound 15 (142,143) was used as a positive control.

LNCaP AI-tumors = experiment: Therapy of mice bearing LNCaP androgen-independent (AI) tumors; assay type: in vivo
[3] = enzalutamide-resistant LAPC4 tumors, western blot
[4] = enzalutamide-resistant LAPC9 AI tumors

CNC(=O)c1ccc(N2C(=S)N(c3ccc(C#N)c(C(F)(F)F)c3)C(=O)C2(C)C)cc1F [Enzalutamide, 4-(3-(4-Cyano-3-(trifluoromethyl)phenyl)-5,5-dimethyl-4-oxo-2-thioxoimidazolidin-1-yl)-2-fluoro-N-methylbenzamide]
E-cadherin expression [1, 3]: slight increases | levels of GR, N-cadherin, Bcl-2 and integrin α2 [1, 3]: continued to express high levels | androgen receptor localization ([1]; enzalutamide-resistant tumors, immuno-histochemistry): still largely in the cytoplasm | tumor growth compared to vehicle (corn oil) control ([1]; first 2-3 weeks): grew significantly slower | time from which tumors resumed growth (resistance to enzalutamide) ([1]; mouse, in vivo): 6.5-7 weeks | growth of enzalutamide-resistant cyto-AR+ LAPC4 tumors ([1]; up to 13 weeks, compared with enzalutamide-resistant LNCaP tumors): grew relatively slow | FKBP5 levels ([2]; both vehicle and treatment groups, western blot): greatly diminished | levels of integrin α2, c-Myc, N-cadherin, Bcl-2 and p-ERK1/2 ([2]; enzalutamide-treated tumors, western blot): continued to express high levels | response of tumors to enzalutamide (tumor volume) ([2]; primary AI tumors, vehicle corn oil): refractory | expression of androgen receptors and PSA ([2]; western blot and IHC of endpoint tumors): no expression | Bcl-2 expression in response to enzalutamide (LNCaP AI-tumors; among CSC and castration resistance markers, western blot): most prominent upregulation | duration of growth suppression (LNCaP AI-tumors; enzalutamide i.p.): 6.5 weeks | time at which no further response to enzalutamide was observed (emergence of enzalutamide-resistant tumors) (LNCaP AI-tumors; enzalutamide i.p.): about 7 weeks | growth of androgen-independent LNCaP tumors (LNCaP AI-tumors; enzalutamide i.p., vehicle corn oil): suppressed growth | FKBP5 expression (LNCaP AI-tumors; enzalutamide-resistant secondary LNCaP CR tumors, western blot): decreased | PSA expression (LNCaP AI-tumors; enzalutamide-resistant secondary LNCaP CR tumors, western blot and IHC): decreased

CC#C[C@]1(O)CC[C@H]2[C@@H]3CCC4=CC(=O)CCC4=C3[C@@H](c3ccc(N(C)C)cc3)C[C@@]21C [mifepristone]
emergence (incidence) of LNCaP secondary castration resistant prostate cancer (LNCaP AI-tumors; combination with enzalutamide given simultaneously, LNCaP primary AI tumors, P<0.0001, χ2 test for venetoclax combination): without reducing incidence | tumor growth (LNCaP AI-tumors; combination with enzalutamide, LNCaP primary AI tumors): inhibited tumor growth

Cc1sc2c(c1C)C(c1ccc(Cl)cc1)=N[C@@H](CC(=O)OC(C)(C)C)c1nnc(C)n1-2 [JQ1, (S)-tert-butyl 2-(4-(4-chlorophenyl)-2,3,9-trimethyl-6H-thieno[3,2-f][1,2,4]triazolo[4,3-a][1,4]diazepin-6-yl)acetate]
tumor growth [2, 4]: significantly inhibited tumor growth | tumor incidence [2, 4]: not tumor incidence
